Measured values taken from PubChem BioAssay (NCI).
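All cell lines were grown in 96-well plates and treated with compound for 48 hours. TGI marks complete inhibition of growth.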

Experiments:
Assay in all cases: NCI-60 cell line screen, 48 h
SK-MEL-28 melanoma = system: SK-MEL-28 melanoma
HOP-92 NSCLC = system: HOP-92 NSCLC
HOP-62 NSCLC = system: HOP-62 NSCLC
KM12 colon = system: KM12 colon
BT-549 breast = system: BT-549 breast
LOX IMVI melanoma = system: LOX IMVI melanoma
CCRF-CEM leukemia = system: CCRF-CEM leukemia
SN12C renal = system: SN12C renal
M14 melanoma = system: M14 melanoma
DU-145 prostate = system: DU-145 prostate
T-47D breast = system: T-47D breast
HT29 colon = system: HT29 colon
A498 renal = system: A498 renal
SNB-19 CNS = system: SNB-19 CNS
MALME-3M melanoma = system: MALME-3M melanoma
UACC-62 melanoma = system: UACC-62 melanoma
HCT-15 colon = system: HCT-15 colon
SF-295 CNS = system: SF-295 CNS
OVCAR-3 ovarian = system: OVCAR-3 ovarian
MDA-MB-231 breast = system: MDA-MB-231 breast
SK-MEL-5 melanoma = system: SK-MEL-5 melanoma
SNB-75 CNS = system: SNB-75 CNS
HL-60(TB) leukemia = system: HL-60(TB) leukemia
UO-31 renal = system: UO-31 renal
SF-539 CNS = system: SF-539 CNS
SK-MEL-2 melanoma = system: SK-MEL-2 melanoma
TK-10 renal = system: TK-10 renal
SR leukemia = system: SR leukemia
OVCAR-4 ovarian = system: OVCAR-4 ovarian
EKVX NSCLC = system: EKVX NSCLC
SF-268 CNS = system: SF-268 CNS
MCF7 breast = system: MCF7 breast
NCI-H460 lung = system: NCI-H460 lung
HCC-2998 colon = system: HCC-2998 colon
NCI-H226 lung = system: NCI-H226 lung
A549 NSCLC = system: A549 NSCLC
MOLT-4 leukemia = system: MOLT-4 leukemia
K-562 leukemia = system: K-562 leukemia
OVCAR-5 ovarian = system: OVCAR-5 ovarian
SW-620 colon = system: SW-620 colon
HCT-116 colon = system: HCT-116 colon
IGROV1 ovarian = system: IGROV1 ovarian
MDA-MB-435 = system: MDA-MB-435
PC-3 prostate = system: PC-3 prostate
RPMI-8226 leukemia = system: RPMI-8226 leukemia
SK-OV-3 ovarian = system: SK-OV-3 ovarian
ACHN renal = system: ACHN renal
HS 578T breast = system: HS 578T breast
UACC-257 melanoma = system: UACC-257 melanoma
NCI-H23 lung = system: NCI-H23 lung
CAKI-1 renal = system: CAKI-1 renal
MDA-N = system: MDA-N
NCI-H522 lung = system: NCI-H522 lung
NCI/ADR-RES ovarian = system: NCI/ADR-RES ovarian
COLO 205 colon = system: COLO 205 colon
U251 CNS = system: U251 CNS
OVCAR-8 ovarian = system: OVCAR-8 ovarian
RXF 393 renal = system: RXF 393 renal
786-0 renal = system: 786-0 renal

Q: `CCCCC1C=Cn2c(=O)oc3c(OC(C)C)c(C)c(O)c1c32` (configuration not stated) was tested. Which TGI (SK-MEL-28 melanoma) did it give?
A: The TGI was 8.33 µM.

Q: And the TGI (HOP-92 NSCLC)?
A: Its TGI is 12.2 µM.

Q: What about the TGI (HOP-62 NSCLC) of the same molecule?
A: The TGI was 10.5 µM.

Q: What about the TGI (KM12 colon) of the same molecule?
A: Its TGI is 8.26 µM.

Q: And the TGI (BT-549 breast)?
A: Its TGI is 13.4 µM.

Q: What about the TGI (LOX IMVI melanoma) of the same molecule?
A: The TGI was 5.52 µM.

Q: And the TGI (CCRF-CEM leukemia)?
A: The TGI was 5.1 µM.

Q: And the TGI (SN12C renal)?
A: Its TGI is 3.71 µM.

Q: What about the TGI (M14 melanoma) of the same molecule?
A: Its TGI is 3.15 µM.

Q: And the TGI (DU-145 prostate)?
A: Its TGI is 5.5 µM.

Q: And the TGI (T-47D breast)?
A: The TGI was 5.93 µM.

Q: And the TGI (HT29 colon)?
A: The TGI was 11.7 µM.

Q: What about the TGI (A498 renal) of the same molecule?
A: The TGI was 1.1 µM.

Q: And the TGI (SNB-19 CNS)?
A: Its TGI is 13.3 µM.

Q: And the TGI (MALME-3M melanoma)?
A: Its TGI is 4.1 µM.

Q: And the TGI (UACC-62 melanoma)?
A: Its TGI is 2.97 µM.

Q: And the TGI (HCT-15 colon)?
A: The TGI was 12.4 µM.

Q: What about the TGI (SF-295 CNS) of the same molecule?
A: Its TGI is 7.16 µM.

Q: And the TGI (OVCAR-3 ovarian)?
A: Its TGI is 14.8 µM.

Q: And the TGI (MDA-MB-231 breast)?
A: The TGI was 4.87 µM.

Q: And the TGI (SK-MEL-5 melanoma)?
A: Its TGI is 6.59 µM.

Q: And the TGI (SNB-75 CNS)?
A: The TGI was 4.83 µM.

Q: And the TGI (HL-60(TB) leukemia)?
A: Its TGI is 1.88 µM.

Q: What about the TGI (UO-31 renal) of the same molecule?
A: Its TGI is 7.02 µM.

Q: What about the TGI (SF-539 CNS) of the same molecule?
A: Its TGI is 19.2 µM.

Q: What about the TGI (SK-MEL-2 melanoma) of the same molecule?
A: The TGI was 5.07 µM.

Q: What about the TGI (TK-10 renal) of the same molecule?
A: The TGI was 18.7 µM.

Q: And the TGI (SR leukemia)?
A: Its TGI is 6.17 µM.

Q: What about the TGI (OVCAR-4 ovarian) of the same molecule?
A: Its TGI is 2.37 µM.

Q: What about the TGI (EKVX NSCLC) of the same molecule?
A: The TGI was 6.83 µM.

Q: And the TGI (SF-268 CNS)?
A: Its TGI is 13.2 µM.

Q: What about the TGI (MCF7 breast) of the same molecule?
A: Its TGI is 1.81 µM.

Q: And the TGI (NCI-H460 lung)?
A: The TGI was 8.39 µM.

Q: And the TGI (HCC-2998 colon)?
A: The TGI was 13.6 µM.

Q: And the TGI (NCI-H226 lung)?
A: Its TGI is 8.12 µM.

Q: And the TGI (A549 NSCLC)?
A: The TGI was 6.97 µM.

Q: And the TGI (MOLT-4 leukemia)?
A: The TGI was 3.33 µM.

Q: What about the TGI (K-562 leukemia) of the same molecule?
A: Its TGI is over 35.3 µM.

Q: And the TGI (OVCAR-5 ovarian)?
A: The TGI was 15.1 µM.

Q: What about the TGI (SW-620 colon) of the same molecule?
A: The TGI was 11.9 µM.

Q: What about the TGI (HCT-116 colon) of the same molecule?
A: The TGI was 7.07 µM.

Q: And the TGI (IGROV1 ovarian)?
A: Its TGI is 10.1 µM.

Q: And the TGI (MDA-MB-435)?
A: Its TGI is 3.38 µM.

Q: And the TGI (PC-3 prostate)?
A: The TGI was 14.2 µM.

Q: What about the TGI (RPMI-8226 leukemia) of the same molecule?
A: Its TGI is 11.8 µM.

Q: And the TGI (SK-OV-3 ovarian)?
A: Its TGI is 13.3 µM.

Q: And the TGI (ACHN renal)?
A: Its TGI is 3.35 µM.

Q: What about the TGI (HS 578T breast) of the same molecule?
A: Its TGI is 14.3 µM.

Q: And the TGI (UACC-257 melanoma)?
A: The TGI was 8.78 µM.

Q: What about the TGI (NCI-H23 lung) of the same molecule?
A: The TGI was 4.71 µM.

Q: And the TGI (CAKI-1 renal)?
A: The TGI was 2.34 µM.

Q: What about the TGI (MDA-N) of the same molecule?
A: Its TGI is 9.67 µM.

Q: And the TGI (NCI-H522 lung)?
A: Its TGI is 5.87 µM.

Q: And the TGI (NCI/ADR-RES ovarian)?
A: The TGI was 5.88 µM.

Q: And the TGI (COLO 205 colon)?
A: The TGI was 9.97 µM.

Q: What about the TGI (U251 CNS) of the same molecule?
A: Its TGI is 11 µM.

Q: What about the TGI (OVCAR-8 ovarian) of the same molecule?
A: Its TGI is 11.4 µM.

Q: Which TGI (SK-MEL-28 melanoma) does the source give for `Cc1[nH]n(-c2nc(O)c(-c3ccccc3)c(=O)[nH]2)c(=O)c1CCO` here?
A: Its TGI is over 100 µM.

Q: What about the TGI (HOP-92 NSCLC) of the same molecule?
A: The TGI was over 100 µM.

Q: What about the TGI (KM12 colon) of the same molecule?
A: Its TGI is over 100 µM.

Q: What about the TGI (BT-549 breast) of the same molecule?
A: The TGI was over 100 µM.

Q: And the TGI (CCRF-CEM leukemia)?
A: Its TGI is over 100 µM.

Q: And the TGI (SN12C renal)?
A: Its TGI is over 100 µM.

Q: What about the TGI (M14 melanoma) of the same molecule?
A: The TGI was over 100 µM.

Q: And the TGI (DU-145 prostate)?
A: The TGI was over 100 µM.

Q: And the TGI (T-47D breast)?
A: The TGI was over 100 µM.

Q: What about the TGI (HT29 colon) of the same molecule?
A: The TGI was over 100 µM.

Q: What about the TGI (A498 renal) of the same molecule?
A: The TGI was over 100 µM.

Q: What about the TGI (SNB-19 CNS) of the same molecule?
A: Its TGI is over 100 µM.

Q: What about the TGI (MALME-3M melanoma) of the same molecule?
A: The TGI was over 100 µM.

Q: And the TGI (UACC-62 melanoma)?
A: Its TGI is over 100 µM.

Q: And the TGI (HCT-15 colon)?
A: Its TGI is over 100 µM.

Q: And the TGI (SF-295 CNS)?
A: The TGI was over 100 µM.

Q: What about the TGI (MDA-MB-231 breast) of the same molecule?
A: The TGI was over 100 µM.

Q: And the TGI (SK-MEL-5 melanoma)?
A: Its TGI is over 100 µM.

Q: And the TGI (SNB-75 CNS)?
A: The TGI was over 100 µM.

Q: What about the TGI (HL-60(TB) leukemia) of the same molecule?
A: The TGI was over 100 µM.

Q: And the TGI (UO-31 renal)?
A: Its TGI is over 100 µM.

Q: And the TGI (SF-539 CNS)?
A: The TGI was over 100 µM.

Q: What about the TGI (SK-MEL-2 melanoma) of the same molecule?
A: The TGI was over 100 µM.

Q: And the TGI (TK-10 renal)?
A: Its TGI is over 100 µM.

Q: And the TGI (SR leukemia)?
A: Its TGI is over 100 µM.

Q: And the TGI (OVCAR-4 ovarian)?
A: The TGI was over 100 µM.

Q: What about the TGI (RXF 393 renal) of the same molecule?
A: The TGI was over 100 µM.

Q: What about the TGI (EKVX NSCLC) of the same molecule?
A: Its TGI is over 100 µM.

Q: And the TGI (SF-268 CNS)?
A: The TGI was over 100 µM.

Q: What about the TGI (MCF7 breast) of the same molecule?
A: The TGI was over 100 µM.

Q: What about the TGI (NCI-H460 lung) of the same molecule?
A: The TGI was over 100 µM.

Q: And the TGI (NCI-H226 lung)?
A: Its TGI is over 100 µM.

Q: And the TGI (A549 NSCLC)?
A: Its TGI is over 100 µM.

Q: What about the TGI (MOLT-4 leukemia) of the same molecule?
A: Its TGI is over 100 µM.

Q: What about the TGI (786-0 renal) of the same molecule?
A: The TGI was over 100 µM.

Q: And the TGI (K-562 leukemia)?
A: Its TGI is over 100 µM.

Q: What about the TGI (OVCAR-5 ovarian) of the same molecule?
A: The TGI was over 100 µM.

Q: What about the TGI (SW-620 colon) of the same molecule?
A: The TGI was over 100 µM.

Q: And the TGI (HCT-116 colon)?
A: The TGI was over 100 µM.

Q: And the TGI (IGROV1 ovarian)?
A: The TGI was over 100 µM.

Q: What about the TGI (MDA-MB-435) of the same molecule?
A: Its TGI is over 100 µM.

Q: What about the TGI (PC-3 prostate) of the same molecule?
A: The TGI was over 100 µM.

Q: What about the TGI (RPMI-8226 leukemia) of the same molecule?
A: The TGI was over 100 µM.

Q: And the TGI (SK-OV-3 ovarian)?
A: The TGI was over 100 µM.

Q: And the TGI (ACHN renal)?
A: The TGI was over 100 µM.

Q: What about the TGI (HS 578T breast) of the same molecule?
A: Its TGI is over 100 µM.

Q: What about the TGI (UACC-257 melanoma) of the same molecule?
A: The TGI was over 100 µM.

Q: What about the TGI (NCI-H23 lung) of the same molecule?
A: The TGI was over 100 µM.

Q: And the TGI (CAKI-1 renal)?
A: Its TGI is over 100 µM.

Q: And the TGI (MDA-N)?
A: The TGI was over 100 µM.

Q: What about the TGI (NCI-H522 lung) of the same molecule?
A: The TGI was over 100 µM.

Q: And the TGI (NCI/ADR-RES ovarian)?
A: The TGI was over 100 µM.

Q: What about the TGI (COLO 205 colon) of the same molecule?
A: The TGI was over 100 µM.

Q: And the TGI (U251 CNS)?
A: Its TGI is over 100 µM.

Q: And the TGI (OVCAR-8 ovarian)?
A: Its TGI is over 100 µM.
